In patent publication US12528802B2, “Heterocyclic compound” (Takeda Pharmaceutical Company Limited, priority 2019, dated 2026):

Target: T1, glucosylceramide synthase (Homo sapiens, UniProt Q16739)
T1 construct: made in house; host or cells: Expi293F cells (transient expression, pcDNA3.3-TOPO vector); microsome fraction used as enzyme source
T1 sequence (Q16739 1-394): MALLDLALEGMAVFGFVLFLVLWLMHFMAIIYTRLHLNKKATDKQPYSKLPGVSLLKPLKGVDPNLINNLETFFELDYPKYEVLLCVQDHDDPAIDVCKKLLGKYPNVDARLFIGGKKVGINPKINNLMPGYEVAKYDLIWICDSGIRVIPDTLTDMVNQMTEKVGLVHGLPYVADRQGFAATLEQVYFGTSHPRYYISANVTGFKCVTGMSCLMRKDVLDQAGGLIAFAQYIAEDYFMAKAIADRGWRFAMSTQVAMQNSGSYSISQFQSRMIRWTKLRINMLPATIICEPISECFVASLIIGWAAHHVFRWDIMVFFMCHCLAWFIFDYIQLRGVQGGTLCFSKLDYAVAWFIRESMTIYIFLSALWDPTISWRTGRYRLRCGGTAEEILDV
Experiment: Glucosylceramide synthase (GCS) enzyme assay, microsome fraction, C8 glucosylceramide quantified by Rapidfire MS/MS
Assay type: biochemical
Details: test compound 10 μM; 1.7 μM UDP-glucose, 3 μM C8 ceramide; room temperature 60 min; read-out: GCS enzyme inhibitory rate at 10 μM (%) (% of control)
How it was run: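 Test compound, 10 μM final, was run against human GCS from transfected Expi293F microsome fractions, using substrate solution of 6 μM C8 ceramide (in DOPC liposomes) plus 3.4 μM UDP-glucose, pH 7.5 Tris buffer, 60 min, room temperature. Product C8 glucosylceramide measured by Rapidfire MS/MS against an internal standard, % inhibition referenced to no-enzyme and DMSO wells.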

| SMILES | inhibition at 10 µM |
| --- | --- |
| CS(=O)(=O)c1ccc(N2Cc3ccnc(-c4ccc(F)cc4OCC(F)(F)F)c3C2)cc1 [Example 140, 4-[4-fluoro-2-(2,2,2-trifluoroethoxy)phenyl]-2-[4-(methanesulfonyl)phenyl]-2,3-dihydro-1H-pyrrolo[3,4-c]pyridine] | 86% |
| CN(C)C(=O)c1ccc(N2Cc3ccnc(-c4ccc(F)cc4OCC(F)(F)F)c3C2)cc1 [Example 141, 4-{4-[4-fluoro-2-(2,2,2-trifluoroethoxy)phenyl]-1,3-dihydro-2H-pyrrolo[3,4-c]pyridin-2-yl}-N,N-dimethylbenzamide] | 90% |
| COc1cccc(F)c1-c1nccc2c1CN(c1ccc(F)cc1)C2=O [Example 142, 4-(2-fluoro-6-methoxyphenyl)-2-(4-fluorophenyl)-2,3-dihydro-1H-pyrrolo[3,4-c]pyridin-1-one] | 77% |
| O=C1C2=C(CN1c1ccc(F)cc1)C(c1ccc(F)cc1OCC(F)(F)F)=NCCN2 [Example 145, 7-(4-fluorophenyl)-5-[4-fluoro-2-(2,2,2-trifluoroethoxy)phenyl]-2,3,6,7-tetrahydropyrrolo[3,4-e][1,4]diazepin-8(1H)-one] | 63% |
| O=C1c2[nH]nc(-c3ccc(F)cc3OCC(F)(F)F)c2CN1c1ccc(F)cc1 [Example 146, 5-(4-fluorophenyl)-3-[4-fluoro-2-(2,2,2-trifluoroethoxy)phenyl]-4,5-dihydropyrrolo[3,4-c]pyrazol-6(1H)-one] | 55% |
| COCc1ccc(N2Cc3c(ccnc3-c3ccc(F)cc3OCC(F)(F)F)C2=O)cc1 [Example 147, 4-[4-fluoro-2-(2,2,2-trifluoroethoxy)phenyl]-2-[4-(methoxymethyl)phenyl]-2,3-dihydro-1H-pyrrolo[3,4-c]pyridin-1-one] | 94% |
| O=C1c2ccc(=O)n(-c3ccccc3OCC(F)(F)F)c2CN1c1ccc(OC(F)(F)F)cc1 [Example 149, 1-[2-(2,2,2-trifluoroethoxy)phenyl]-6-[4-(trifluoromethoxy)phenyl]-6,7-dihydro-1H-pyrrolo[3,4-b]pyridine-2,5-dione] | 99% |
| O=C1c2ccnc(-c3ccc(F)cc3OCC(F)(F)F)c2CN1c1cnc(OC(F)F)nc1 [Example 151, 2-[2-(difluoromethoxy)pyrimidin-5-yl]-4-[4-fluoro-2-(2,2,2-trifluoroethoxy)phenyl]-2,3-dihydro-1H-pyrrolo[3,4-c]pyridin-1-one] | 94% |
| O=C(c1ccc(N2Cc3c(ccnc3-c3ccc(F)cc3OCC(F)(F)F)C2=O)cc1)N1CCOCC1 [Example 152, 4-[4-fluoro-2-(2,2,2-trifluoroethoxy)phenyl]-2-[4-(morpholine-4-carbonyl)phenyl]-2,3-dihydro-1H-pyrrolo[3,4-c]pyridin-1-one] | 90% |
| O=C1c2ccnc(-c3ccc(F)cc3OCC(F)(F)F)c2CN1c1cnn(CC2CC2)c1 [Example 153, 2-[1-(cyclopropylmethyl)-1H-pyrazol-4-yl]-4-[4-fluoro-2-(2,2,2-trifluoroethoxy)phenyl]-2,3-dihydro-1H-pyrrolo[3,4-c]pyridin-1-one] | 98% |
| COCCn1cc(N2Cc3c(ccnc3-c3ccc(F)cc3OCC(F)(F)F)C2=O)cn1 [Example 154, 4-[4-fluoro-2-(2,2,2-trifluoroethoxy)phenyl]-2-[1-(2-methoxyethyl)-1H-pyrazol-4-yl]-2,3-dihydro-1H-pyrrolo[3,4-c]pyridin-1-one] | 85% |
| O=C1c2ccnc(-c3ccc(F)cc3OCC(F)(F)F)c2CN1c1ccc(C2(O)COC2)cc1 [Example 155, 4-[4-fluoro-2-(2,2,2-trifluoroethoxy)phenyl]-2-[4-(3-hydroxyoxetan-3-yl)phenyl]-2,3-dihydro-1H-pyrrolo[3,4-c]pyridin-1-one] | 93% |
| N#Cc1ccc(N2Cc3ccnc(-c4ccc(F)cc4OCC(F)(F)F)c3C2)nc1 [Example 156, 6-{4-[4-fluoro-2-(2,2,2-trifluoroethoxy)phenyl]-1,3-dihydro-2H-pyrrolo[3,4-c]pyridin-2-yl}pyridine-3-carbonitrile] | 94% |
| CCS(=O)(=O)c1ccc(N2Cc3c(ccnc3-c3ccccc3OCC(F)(F)F)C2=O)cc1 [Example 160, 2-[4-(ethanesulfonyl)phenyl]-4-[2-(2,2,2-trifluoroethoxy)phenyl]-2,3-dihydro-1H-pyrrolo[3,4-c]pyridin-1-one] | 99% |
| CS(=O)(=O)c1ccc(N2Cc3c(ccnc3-c3ccccc3OCC(F)(F)F)C2=O)cc1 [Example 161, 2-[4-(methanesulfonyl)phenyl]-4-[2-(2,2,2-trifluoroethoxy)phenyl]-2,3-dihydro-1H-pyrrolo[3,4-c]pyridin-1-one] | 98% |
| CN(C)C(=O)c1ccc(N2Cc3c(ccnc3-c3ccccc3OCC(F)(F)F)C2=O)cc1 [Example 162, N,N-dimethyl-4-{1-oxo-4-[2-(2,2,2-trifluoroethoxy)phenyl]-1,3-dihydro-2H-pyrrolo[3,4-c]pyridin-2-yl}benzamide] | 95% |
| O=C1c2ccnc(-c3ccc(F)cc3OCC(F)(F)F)c2CN1c1ccc(C2(O)CCC2)cc1 [Example 163, 4-[4-fluoro-2-(2,2,2-trifluoroethoxy)phenyl]-2-[4-(1-hydroxycyclobutyl)phenyl]-2,3-dihydro-1H-pyrrolo[3,4-c]pyridin-1-one] | 100% |
| O=C1c2ccnc(-c3ccc(F)cc3OCC(F)(F)F)c2CN1c1ccc(O[C@@H]2CCOC2)cc1 [Example 164, 4-[4-fluoro-2-(2,2,2-trifluoroethoxy)phenyl]-2-(4-{[(3R)-oxolan-3-yl]oxy}phenyl)-2,3-dihydro-1H-pyrrolo[3,4-c]pyridin-1-one] | 99% |
| O=C1c2ccnc(-c3ccc(F)cc3OCC(F)(F)F)c2CN1c1ccc(O[C@H]2CCOC2)cc1 [Example 165, 4-[4-fluoro-2-(2,2,2-trifluoroethoxy)phenyl]-2-(4-{[(3S)-oxolan-3-yl]oxy}phenyl)-2,3-dihydro-1H-pyrrolo[3,4-c]pyridin-1-one] | 98% |
| O=C(c1ccc(N2Cc3c(ccnc3-c3ccc(F)cc3OCC(F)(F)F)C2=O)cc1)N1CCC1 [Example 166, 2-[4-(azetidine-1-carbonyl)phenyl]-4-[4-fluoro-2-(2,2,2-trifluoroethoxy)phenyl]-2,3-dihydro-1H-pyrrolo[3,4-c]pyridin-1-one] | 87% |
| O=C1c2ccnc(-c3ccc(F)cc3OCC(F)(F)F)c2CN1c1ccc(OC2CCOCC2)nc1 [Example 167, 4-[4-fluoro-2-(2,2,2-trifluoroethoxy)phenyl]-2-{6-[(oxan-4-yl)oxy]pyridin-3-yl}-2,3-dihydro-1H-pyrrolo[3,4-c]pyridin-1-one] | 98% |
| Fc1ccc(N2Cc3ccnc(-c4ccccc4OCC(F)(F)F)c3C2)cc1 [Example 168, 2-(4-fluorophenyl)-4-[2-(2,2,2-trifluoroethoxy)phenyl]-2,3-dihydro-1H-pyrrolo[3,4-c]pyridine] | 100% |
| Fc1ccc(N2Cc3ccnc(-c4ccc(F)cc4OCC(F)(F)F)c3C2)nc1 [Example 169, 2-(5-fluoropyridin-2-yl)-4-[4-fluoro-2-(2,2,2-trifIuoroethoxy)phenyl]-2,3-dihydro-1H-pyrrolo[3,4-c]pyridine] | 95% |
| COc1cnccc1-c1nccc2c1CN(c1ccc(F)cc1)C2 [Example 170, 2-(4-fluorophenyl)-4-(3-methoxypyridin-4-yl)-2,3-dihydro-1H-pyrrolo[3,4-c]pyridine] | 88% |
| CC(C)(C#N)COc1cc(F)ccc1-c1nccc2c1CN(c1ccc(OC(F)F)nc1)C2=O [Example 171, 3-(2-{2-[6-(difluoromethoxy)pyridin-3-yl]-1-oxo-2,3-dihydro-1H-pyrrolo[3,4-c]pyridin-4-yl}-5-fluorophenoxy)-2,2-dimethylpropanenitrile] | 52% |
| COc1ccccc1-c1nccc2c1CN(c1ccc(F)cc1)C2 [Example 172, 2-(4-fluorophenyl)-4-(2-methoxyphenyl)-2,3-dihydro-1H-pyrrolo[3,4-c]pyridine] | 91% |
| O=C1c2ccnc(-c3ccc(F)cc3OCCOC(F)(F)F)c2CN1c1ccc(OC(F)F)nc1 [Example 174, 2-[6-(difluoromethoxy)pyridin-3-yl]-4-{4-fluoro-2-[2-(trifluoromethoxy)ethoxy]phenyl}-2,3-dihydro-1H-pyrrolo[3,4-c]pyridin-1-one] | 99% |
| Cc1cncc(OCC(F)(F)F)c1-c1nccc2c1CN(c1ccc(OC(F)F)cc1)C2=O [Example 175, 2-[4-(difluoromethoxy)phenyl]-4-[3-methyl-5-(2,2,2-trifluoroethoxy)pyridin-4-yl]-2,3-dihydro-1H-pyrrolo[3,4-c]pyridin-1-one ditrifluoroacetate] | 100% |
| O=C1C2=C(CN1c1ccc(OCC(F)(F)F)cc1)C(c1ccc(F)cc1OCC(F)(F)F)=NCCN2 [Example 176, 5-[4-fluoro-2-(2,2,2-trifluoroethoxy)phenyl]-7-[4-(2,2,2-trifluoroethoxy)phenyl]-2,3,6,7-tetrahydropyrrolo[3,4-e][1,4]diazepin-8(1H)-one] | 100% |
